Assay results: patent publication US10870710B2, “Synthetic oligosaccharide subunits of the Psl exopolysaccharide of pseudomonas aeruginosa and uses thereof” (Medlmmune Limited, priority 2013, dated 2020)

test system: anti-Psl mAb WapR-016 (class III); assay: ELISA, class III mAb WapR-016 binding to oligosaccharide-BSA conjugates; settings: oligosaccharide-BSA conjugate coated on plate; mAb 5 μg/mL
Description: Microtiter plates were coated with tetrasaccharide (3)-BSA conjugate (3A), pentasaccharide (2)-BSA conjugate (3B), hexasaccharide (4)-BSA conjugate (3C), and decasaccharide (1)-BSA conjugate (3D) at the indicated carbohydrate concentrations. Anti-Psl mAbs class I (Cam-003, ●), class II (WapR-001, ▪), class III (WapR-016, ▴), and R347 (♦) (5 μg/mL) were tested for reactivity with each oligosaccharide component. The optical density (OD) values are reported as the means±SD. Class I (Cam-003), II (WapR-001), and III (WapR-016) anti-Psl mAbs were previously shown to bind three unique epitopes of Psl derived from P. aeruginosa.
The conjugations were performed as instructed by Pierce Endogen Inc. In short, the thiol derivative (2.5 eq. excess to available MI-groups on the protein), deprotected just prior to conjugation as described above, was dissolved in ddH2O (100 μL) and added to a solution of the maleimide activated protein (2 mg) in conjugation buffer sodium phosphate pH 7.2 containing EDTA and sodium azide (200 μL). The mixture was incubated at room temperature for 18 h and then purified by Millipore Centriplus centrifugal filter devices with a 10 kDa molecular cutoff. All centrifugations were performed at 4° C. for 25 min, 3000 rpm. The reaction mixture was centrifuged and the filter washed with sodium phosphate buffer pH 7.4 (3×200 μL). The conjugate was retrieved and taken up in sodium phosphate buffer pH 7.4, 0.15 M sodium chloride (1 mL). This gave glycoconjugates with a molar carbohydrate/BSA ratio of 7:1 for tetrasaccharide 3, 8:1 for pentasaccharide 2, 15:1 for hexasaccharide 4, and 5:1 for decasaccharide 1 as determined by quantitative monosaccharide analysis by HPAEC/PAD and the Lowry protein concentration assay.
ELISA plates (Nunc MaxiSorp) were coated overnight at 4° C. with 3-fold serial dilutions of oligosaccharide-BSA conjugates (relative to the concentration of the conjugated oligosaccharides) followed by washing with PBS supplemented with 0.1% Tween 20 (PBS-T) and blocking with PBS supplemented with 1% bovine serum albumin (PBS-B). The coated ELISA plates were incubated with anti-Psl antibodies (5 μg/mL in PBS-B) for 1 h at 4° C. Next the plates were washed with PBS-T and treated with HRP-conjugated anti-human secondary antibodies for 1 h followed by development and analysis as described (Digiandomenico, A., et al., J. Exp. Med. 2012, 209, 1273-1287).
After confirming the structural integrity of the synthetic Psl oligosaccharides, the ability of various anti-Psl mAbs to recognize the synthetic oligosaccharides was examined as follows. […]

Row | Compound | ELISA reactivity with WapR-016
1 | CC1O[C@@H](OC2C(O)[C@H](OCN)OC(CO)[C@H]2O)C(O)C(O[C@@H]2OC(CO)[C@@H](O)C(O[C@@H]3OC(CO)[C@@H](O)C(O)C3O[C@H]3OC(CO)[C@@H](O)C(O)C3O)C2O)[C@H]1O (stereo partly shown) [compound 2] | did not bind
2 | CC1O[C@@H](OC2C(O)[C@H](OC3C(O[C@H]4OC(CO)[C@@H](O)C(O)C4O)[C@H](OC4C(O)[C@H](OC5C(O)[C@H](OC6C(O)[C@H](OCN)OC(CO)[C@H]6O)OC(C)[C@@H]5O)OC(CO)[C@H]4O)OC(CO)[C@H]3O)OC(CO)[C@H]2O)C(O)C(O[C@@H]2OC(CO)[C@@H](O)C(O[C@@H]3OC(CO)[C@@H](O)C(O)C3O[C@H]3OC(CO)[C@@H](O)C(O)C3O)C2O)[C@H]1O (stereo partly shown) [compound 1] | weakly
3 | CC1O[C@@H](OC2C(O)[C@H](OCN)OC(CO)[C@H]2O)C(O)C(O[C@@H]2OC(CO)[C@@H](O)C(O[C@@H]3OC(CO)[C@@H](O)C(O[C@@H]4OC(CO)[C@@H](O)C(O)C4O)C3O[C@H]3OC(CO)[C@@H](O)C(O)C3O)C2O)[C@H]1O (stereo partly shown) [compound 4] | react potently
4 | CC1O[C@@H](OC2C(O)[C@H](OCN)OC(CO)[C@H]2O)C(O)C(O[C@@H]2OC(CO)[C@@H](O)C(O[C@@H]3OC(CO)[C@@H](O)C(O)C3O)C2O)[C@H]1O (stereo partly shown) [compound 3] | did not bind
